Converted amounts (≈) assume the structure as drawn. Like-named read-outs stand apart in the source and are kept apart here.
How the values were obtained:
[1] = target: DHPS enzyme (dihydropteroate synthase) (Bacillus anthracis, UniProt Q81VW8); assay: biochemical; settings: for inhibition at 0.1 µg/mL / inhibition at 1 µg/mL / inhibition at 10 µg/mL / inhibition at 100 µg/mL: read-out: Inhibition % against DHPS enzyme
[2] = test system: P. aeruginosa (ATCC: 27853); assay: Agar well diffusion, inhibition zone, P. aeruginosa; type: cell-based; settings: for zone of inhibition at 15000 µg/mL: Pseudomonas aeruginosa, read-out: Diameter of the Inhibition Zone, P. aeruginosa
P. aeruginosa = assay: MIC, twofold serial dilution, P. aeruginosa; type: cell-based; settings: Pseudomonas aeruginosa, read-out: The Minimum Inhibitory Concentration (MIC), P. aeruginosa
S. aureus (ATCC: 6538) = assay: Agar well diffusion, inhibition zone, S. aureus; type: cell-based; settings: agar well diffusion, 15 mg/mL, 100 μL per well, 37 °C 24 h, mean ± SD, triplicate; for zone of inhibition at 15000 µg/mL: Staphylococcus aureus, read-out: Diameter of the Inhibition Zone, S. aureus
K. pneumonia = assay: MIC, twofold serial dilution, K. pneumonia; type: cell-based; settings: Klebsiella pneumoniae, read-out: The Minimum Inhibitory Concentration (MIC), K. pneumonia
S. aureus = assay: MIC, twofold serial dilution, S. aureus; type: cell-based; settings: Staphylococcus aureus; twofold serial dilution in broth, 37 °C 16–20 h; read-out: The Minimum Inhibitory Concentration (MIC), S. aureus
Procedure: The new synthetic compounds, 6a–c, 12a–c, 14a–c, 16a–c and 19a–e, were tested in vitro to evaluate antibacterial activities against Gram-negative and Gram-positive bacteria, such as E. coli (ATCC: 3008), K. pneumonia (ATCC: 4415) and P. aeruginosa (ATCC: 27853), as an example for Gram-negative bacteria, as well as S. aureus (ATCC: 6538) and S. mutans (ATCC: 25175) for Gram-positive bacteria. The antifungal activities were evaluated also for the novel compounds in vitro against C. albicans (ATCC: 10231). The antibacterial and antifungal activities were determined by the agar-diffusion method using gentamicin, ampicillin and sulfadiazine, example of sulfa drug, as standard drugs against Gram-negative and Gram-positive, while nystatin was used as standard drug against the fungal strain. Table 1 summarizes the results for all tested compounds as the average diameter of inhibition zones of microbial growth around the discs in mm ± SD.
For each strain, three to five isolated colonies were selected from the fresh agar plate and were transferred into a tube containing 3–4 mL of sterile broth medium. The bacterial suspension was mixed well and incubated at 35–37 °C for 2–6 h. The turbidity of the bacterial suspension should be equal to or greater than the turbidity of a McFarland Standard 0.5. After that, 1 mg of the tested compound (antimicrobial agent) was dissolved in 1 mL DMSO and two-fold serial dilution was done using broth medium. A fixed volume of the prepared bacterial inoculum was added to each tube and incubated for at 37 °C 16–20 h. The MIC is defined as the lowest concentration of the antimicrobial agent that inhibits visible growth of the tested isolate as observed with the unaided eye.

S. mutans (ATCC: 25175) = assay: Agar well diffusion, inhibition zone, S. mutans; type: cell-based; settings: agar well diffusion, 15 mg/mL, 100 μL per well, 37 °C 24 h, mean ± SD, triplicate; for zone of inhibition at 15000 µg/mL: Streptococcus mutans, read-out: Diameter of the Inhibition Zone, S. mutans
E. coli (ATCC: 3008) = assay: Agar well diffusion, inhibition zone, E. coli; type: cell-based; settings: for zone of inhibition at 15000 µg/mL: Escherichia coli, read-out: Diameter of the Inhibition Zone, E. coli
[3] = test system: K. pneumonia (ATCC: 4415); assay: Agar well diffusion, inhibition zone, K. pneumonia; type: cell-based; settings: for zone of inhibition at 15000 µg/mL: Klebsiella pneumoniae, read-out: Diameter of the Inhibition Zone, K. pneumonia
S. mutans = assay: MIC, twofold serial dilution, S. mutans; type: cell-based; settings: Streptococcus mutans; twofold serial dilution in broth, 37 °C 16–20 h; read-out: The Minimum Inhibitory Concentration (MIC), S. mutans
[4] = test system: C. albicans (ATCC: 10231); assay: Agar well diffusion, inhibition zone, C. albicans; type: cell-based; settings: Candida albicans, 15 mg/mL, 100 μL per well, mean ± SD, triplicate, read-out: Diameter of the Inhibition Zone, C. albicans
[5] = agar well diffusion, 15 mg/mL, 100 μL per well, 37 °C 24 h, mean ± SD, triplicate
[6] = twofold serial dilution in broth, 37 °C 16–20 h

Sequence of DHPS enzyme (dihydropteroate synthase) (Q81VW8 1-280): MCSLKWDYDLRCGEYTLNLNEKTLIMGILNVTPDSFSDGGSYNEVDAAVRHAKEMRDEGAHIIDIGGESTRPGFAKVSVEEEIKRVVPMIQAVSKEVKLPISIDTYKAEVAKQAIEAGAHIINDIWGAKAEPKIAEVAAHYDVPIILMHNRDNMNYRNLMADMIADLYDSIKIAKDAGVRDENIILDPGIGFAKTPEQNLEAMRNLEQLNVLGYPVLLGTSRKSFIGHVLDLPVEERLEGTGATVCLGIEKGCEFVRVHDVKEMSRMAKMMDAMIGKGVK

SMILES | IC50 [1] [µM] | inhibition at 0.1 µg/mL ([1]; 0.1 μg/mL) [%] | inhibition at 1 µg/mL ([1]; 1 μg/mL) [%] | inhibition at 10 µg/mL ([1]; 10 μg/mL) [%] | inhibition at 100 µg/mL ([1]; 100 μg/mL) [%] | zone of inhibition at 15000 µg/mL [2, 5] [mm] | MIC (P. aeruginosa; [6]) [µM] | zone of inhibition at 15000 µg/mL (S. aureus (ATCC: 6538)) [mm] | MIC (K. pneumonia; [6]) [µM] | MIC (S. aureus) [µM] | zone of inhibition at 15000 µg/mL (S. mutans (ATCC: 25175)) [mm] | Diameter of the Inhibition Zone, E. coli (E. coli (ATCC: 3008); [5]) | zone of inhibition at 15000 µg/mL [3, 5] [mm] | melting point [°C] | MIC (S. mutans) [µM] | zone of inhibition at 15000 µg/mL [4] [mm] | Diameter of the Inhibition Zone, K. pneumonia [3, 5] | further results
Cc1ccc(S(=O)(=O)NNC(=O)/C(=C/c2ccc(Cl)cc2)c2nc3ccccc3s2)cc1 [Compound 14b] | 34.6 | 12 | 24 | 47 | 65 | 24.3 ± 0.6 | 517 (≈ 250 µg/mL) | 31.6 ± 0.6 | 1030 (≈ 500 µg/mL) | 129 (≈ 62.4 µg/mL) | 21.6 ± 0.6 | - | 15.6 ± 0.6 | 188 to 189 | 258 (≈ 125 µg/mL) |  |  | 
O=c1[nH][nH]c(-c2ccc(F)cc2)c1-c1nc2ccccc2s1 [Compound 16a, 4-(Benzo[d]thiazole-2-yl)-5-(4-florophenyl)-1H-pyrazol-3(2H)-one] | 35.9 | 12 | 26 | 49 | 70 | 16.6 ± 0.5 | 1610 (≈ 500 µg/mL) | 15.3 ± 0.5 | 803 (≈ 250 µg/mL) | 1610 (≈ 500 µg/mL) | 25 ± 0.6 | - | 17.3 ± 0.6 | 238 to 240 | 200 (≈ 62.3 µg/mL) | 12.3 ± 0.5 |  | 
O=c1[nH][nH]c(-c2ccc(Cl)cc2)c1-c1nc2ccccc2s1 [Compound 16b, 4-(Benzo[d]thiazole-2-yl)-5-(4-chlorophenyl)-1H-pyrazol-3(2H)-one] | 23.9 | 16 | 31 | 52 | 72 | 25.6 ± 0.6 | 762 (≈ 250 µg/mL) | 35.3 ± 0.6 |  | 191 (≈ 62.6 µg/mL) | 24.6 ± 0.6 | - |  | 236 to 237.5 | 191 (≈ 62.6 µg/mL) | 10.6 ± 0.5 | - | 
Cc1ccc(-c2[nH][nH]c(=O)c2-c2nc3ccccc3s2)cc1 [Compound 16c, 4-(Benzo[d]thiazole-2-yl)-5-(p-tolyl)-1H-pyrazol-3(2H)-one] | 35.9 | 13 | 31 | 48 | 68 |  |  | 40.3 ± 0.6 | 813 (≈ 250 µg/mL) | 25 (≈ 7.68 µg/mL) | 31.3 ± 0.6 | - | 24.3 ± 0.6 | 239 to 241 | 203 (≈ 62.4 µg/mL) |  |  | Diameter of the Inhibition Zone, P. aeruginosa [2, 5]: -
Cc1ccc(NN=C(C(=O)NNS(=O)(=O)c2ccccc2)c2nc3ccccc3s2)cc1 [Compound 19c, N′-(2-(Benzo[d]thiazol-2-yl)-2-(2-(4-methylphenyl)hydrazono)acetyl)benzene-sulfonohydrazide] |  |  |  |  |  | 16 ± 1 | 2150 (≈ 1000 µg/mL) | 11 ± 1 |  |  |  | - |  | 262 to 263 |  | 11.6 ± 0.5 | - | Diameter of the Inhibition Zone, S. mutans (S. mutans (ATCC: 25175)): -
Cc1ccc(S(=O)(=O)NNC(=O)/C(=N/Nc2ccc(Cl)cc2)c2nc3ccccc3s2)cc1 [Compound 19d, N′-(2-(Benzo[d]thiazol-2-yl)-2-(2-(4-chlorophenyl)hydrazono)acetyl)-4-methylbenzenesulfono-hydrazide] |  |  |  |  |  | 21.6 ± 0.6 | 500 (≈ 250 µg/mL) |  |  |  |  | - |  | 280 to 281 |  |  | - | Diameter of the Inhibition Zone, S. aureus (S. aureus (ATCC: 6538)): -; Diameter of the Inhibition Zone, S. mutans (S. mutans (ATCC: 25175)): -
CNC(C)C1CCC(N)C(OC2C(N)CC(N)C(OC3OCC(C)(O)C(NC)C3O)C2O)O1 (stereo not shown) [Gentamicin, reference compound] |  |  |  |  |  |  |  |  |  |  |  |  |  |  |  |  |  | zone of inhibition at 15000 µg/mL ([2]; 24 h): 30 ± 0.5 mm; MIC (P. aeruginosa): 131 µM (≈ 62.6 µg/mL); MIC (K. pneumonia): 65 µM (≈ 31 µg/mL); zone of inhibition at 15000 µg/mL (E. coli (ATCC: 3008); 24 h): 27 ± 0.5 mm; zone of inhibition at 15000 µg/mL ([3]; 24 h): 25 ± 0.5 mm
Nc1ccc(S(=O)(=O)Nc2ncccn2)cc1 [Sulfadiazine, reference compound] | 28.5 |  |  |  |  | 20.6 ± 1.4 | 999 (≈ 250 µg/mL) | 21.5 ± 0.6 | 999 (≈ 250 µg/mL) | 2000 (≈ 500 µg/mL) | 22.2 ± 1.1 |  | 15.9 ± 0.9 |  | 499 (≈ 125 µg/mL) |  |  | inhibition at 0.1 µg/mL [1]: 11%; inhibition at 1 µg/mL [1]: 26%; inhibition at 10 µg/mL [1]: 56%; inhibition at 100 µg/mL [1]: 75%; zone of inhibition at 15000 µg/mL (E. coli (ATCC: 3008); [5]): 21.4 ± 0.4 mm

Reference: PMC9774648, “Synthesis, Physicochemical Properties and Molecular Docking of New Benzothiazole Derivatives as Antimicrobial Agents Targeting DHPS Enzyme” (Antibiotics, 2022)
